Source: PubChem BioAssay (NCI)
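Abbreviation: GI50, concentration required for 50% inhibition of growth. TGI: total growth inhibition.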

Tests used:
Assay in all cases: NCI-60 cell line screen, 384-well format
SK-MEL-5 melanoma = tested on: SK-MEL-5 melanoma
SNB-75 CNS = tested on: SNB-75 CNS
TK-10 renal = tested on: TK-10 renal
SF-295 CNS = tested on: SF-295 CNS
MALME-3M melanoma = tested on: MALME-3M melanoma
NCI-H460 NSCLC = tested on: NCI-H460 NSCLC
SF-539 CNS = tested on: SF-539 CNS
EKVX NSCLC = tested on: EKVX NSCLC
OVCAR-3 ovarian = tested on: OVCAR-3 ovarian
KM12 colon = tested on: KM12 colon
COLO 205 colon = tested on: COLO 205 colon
UACC-257 melanoma = tested on: UACC-257 melanoma
A549 NSCLC = tested on: A549 NSCLC
HOP-92 NSCLC = tested on: HOP-92 NSCLC
T-47D breast = tested on: T-47D breast
OVCAR-4 ovarian = tested on: OVCAR-4 ovarian
NCI-H23 lung = tested on: NCI-H23 lung
SF-268 CNS = tested on: SF-268 CNS
HT29 colon = tested on: HT29 colon
SK-MEL-28 melanoma = tested on: SK-MEL-28 melanoma
NCI-H226 lung = tested on: NCI-H226 lung
HCT-116 colon = tested on: HCT-116 colon
UACC-62 melanoma = tested on: UACC-62 melanoma
786-0 renal = tested on: 786-0 renal
NCI-H322M lung = tested on: NCI-H322M lung
CAKI-1 renal = tested on: CAKI-1 renal
NCI-H522 lung = tested on: NCI-H522 lung
SNB-19 CNS = tested on: SNB-19 CNS
HS 578T breast = tested on: HS 578T breast
M14 melanoma = tested on: M14 melanoma
IGROV1 ovarian = tested on: IGROV1 ovarian
HCT-15 colon = tested on: HCT-15 colon
UO-31 renal = tested on: UO-31 renal
DU-145 prostate = tested on: DU-145 prostate
OVCAR-8 ovarian = tested on: OVCAR-8 ovarian
MDA-MB-468 breast = tested on: MDA-MB-468 breast
U251 glioblastoma = tested on: U251 glioblastoma
MDA-MB-435 melanoma = tested on: MDA-MB-435 melanoma
SK-OV-3 ovarian = tested on: SK-OV-3 ovarian
HOP-62 NSCLC = tested on: HOP-62 NSCLC
HL-60(TB) leukemia = tested on: HL-60(TB) leukemia
MOLT-4 leukemia = tested on: MOLT-4 leukemia
PC-3 prostate = tested on: PC-3 prostate
OVCAR-5 ovarian = tested on: OVCAR-5 ovarian
SR leukemia = tested on: SR leukemia
MCF7 breast = tested on: MCF7 breast
SN12C renal = tested on: SN12C renal
SK-MEL-2 melanoma = tested on: SK-MEL-2 melanoma
BT-549 breast = tested on: BT-549 breast
MDA-MB-231 breast = tested on: MDA-MB-231 breast
RXF 393 renal = tested on: RXF 393 renal
K-562 leukemia = tested on: K-562 leukemia
SW-620 colon = tested on: SW-620 colon

## C=CCn1c(=O)c2cnc(Nc3ccc(N4CCN(C)CC4)cc3)nc2n1-c1ccc2c(n1)[C@@](O)(CC)CC2
SK-MEL-5 melanoma
  GI50: 0.172 µM
  TGI: 0.453 µM
SNB-75 CNS
  GI50: 1.07 µM
  TGI: 8.16 µM
TK-10 renal
  GI50: 0.16 µM
  TGI: 1.56 µM
SF-295 CNS
  GI50: 0.348 µM
  TGI: 3.54 µM
MALME-3M melanoma
  GI50: 0.101 µM
  TGI: 0.484 µM
NCI-H460 NSCLC
  GI50: 0.139 µM
  TGI: 0.806 µM
SF-539 CNS
  GI50: 0.0495 µM
  TGI: 0.194 µM
EKVX NSCLC
  GI50: 0.324 µM
  TGI: 2.51 µM
OVCAR-3 ovarian
  GI50: 0.126 µM
  TGI: 0.371 µM
KM12 colon
  GI50: 1.13 µM
  TGI: 7.26 µM
COLO 205 colon
  GI50: 0.349 µM
  TGI: 2.02 µM
UACC-257 melanoma
  GI50: 1.95 µM
  TGI: 11.3 µM
A549 NSCLC
  GI50: 1.83 µM
  TGI: 12.3 µM
HOP-92 NSCLC
  GI50: 0.13 µM
  TGI: 13.4 µM
T-47D breast
  GI50: 5.81 µM
  TGI: 21.8 µM
OVCAR-4 ovarian
  GI50: 0.196 µM
  TGI: 1.04 µM
NCI-H23 lung
  GI50: 0.0785 µM
  TGI: 0.257 µM
SF-268 CNS
  GI50: 0.689 µM
  TGI: 13.8 µM
HT29 colon
  GI50: 0.211 µM
  TGI: 0.536 µM
SK-MEL-28 melanoma
  GI50: 2.88 µM
  TGI: 14.3 µM
NCI-H226 lung
  GI50: 1.02 µM
  TGI: 5.55 µM
HCT-116 colon
  GI50: 0.268 µM
  TGI: 8.68 µM
UACC-62 melanoma
  GI50: 0.371 µM
  TGI: 14.7 µM
786-0 renal
  GI50: 0.243 µM
  TGI: 0.964 µM
NCI-H322M lung
  GI50: 0.206 µM
  TGI: 2.03 µM
CAKI-1 renal
  GI50: 0.0644 µM
  TGI: 12.7 µM
NCI-H522 lung
  GI50: 0.13 µM
  TGI: 0.286 µM
SNB-19 CNS
  GI50: 1.35 µM
  TGI: > 100 µM
HS 578T breast
  GI50: 0.083 µM
  TGI: 0.445 µM
M14 melanoma
  GI50: 0.0584 µM
  TGI: 0.863 µM
IGROV1 ovarian
  GI50: 0.0953 µM
  TGI: 1.35 µM
HCT-15 colon
  GI50: 0.44 µM
  TGI: 1.8 µM
UO-31 renal
  GI50: 0.307 µM
  TGI: 1.44 µM
DU-145 prostate
  GI50: 0.241 µM
  TGI: 3.89 µM
OVCAR-8 ovarian
  GI50: 0.288 µM
  TGI: 1.05 µM
MDA-MB-468 breast
  GI50: 0.12 µM
  TGI: 0.349 µM
U251 glioblastoma
  GI50: 0.497 µM
  TGI: 11.4 µM
MDA-MB-435 melanoma
  GI50: 0.16 µM
  TGI: 0.374 µM
SK-OV-3 ovarian
  GI50: 0.174 µM
  TGI: 1.57 µM
HOP-62 NSCLC
  GI50: 0.401 µM
  TGI: 2.15 µM
HL-60(TB) leukemia
  GI50: 0.11 µM
  TGI: 0.233 µM
MOLT-4 leukemia
  GI50: 0.0305 µM
  TGI: 0.121 µM
PC-3 prostate
  GI50: 1.04 µM
  TGI: 20.3 µM
OVCAR-5 ovarian
  GI50: 0.92 µM
  TGI: 14.4 µM
SR leukemia
  GI50: 0.103 µM
  TGI: 0.224 µM
MCF7 breast
  GI50: 0.218 µM
  TGI: 2.19 µM
SN12C renal
  GI50: 0.328 µM
  TGI: 3.89 µM
SK-MEL-2 melanoma
  GI50: 0.124 µM
  TGI: 0.352 µM
BT-549 breast
  GI50: 0.137 µM
  TGI: 0.348 µM
MDA-MB-231 breast
  GI50: 0.395 µM
  TGI: 10.1 µM
RXF 393 renal
  GI50: 0.026 µM
  TGI: 0.106 µM
K-562 leukemia
  GI50: 0.165 µM
  TGI: 0.354 µM
SW-620 colon
  GI50: 0.28 µM
  TGI: 1.95 µM
